The values below come from US10280175B2, “Hepatitis B antiviral agents” (Enanta Pharmaceuticals, Inc., priority 2016, dated 2019).

The subject of this test is HBV in HepAD38 cells. As to the kind of experiment: HepAD38 cell antiviral assay (reduction of viral product accumulation). In kind it is cell-based. Particulars: Hepatitis B virus, concentration reducing viral product accumulation by 50% relative to no drug controls. As for the experimental part: Methods: HepAD38 cells are maintained as previously reported (Ladner et al, Antimicrob. Agents Chemother. 1997, […], 1715). Briefly, cells are passaged upon attaining confluency in DMEM/F12 media in the presence of 10% FBS, Penn/Strep, 250 μg/mL G418, and 1 ug/ml tetracycline. Novel compounds are screened by first washing cells three times with PBS to remove tetracycline, and plating in 96 well plates at 35,000 cells/well. Compounds dissolved in DMSO are then diluted 1:200 into wells containing cells. Five days after compound addition, material is harvested for analysis. For an extended 8 day analysis, cells are plated and treated as described above, but media and compound are refreshed on d2 and d5 post initial treatment.
On harvest day, virion DNA is obtained by lysing with Sidestep Lysis and Stabilization Buffer and then quantified via quantitative real time PCR. Commercially available ELISA kits are used to quantitate the viral proteins HBsAg (Alpco) or HBeAg (US Biological) by following the manufacturer's recommended protocol after diluting samples to match the linear range of their respective assays. Irrespective of readout, compound concentrations that reduce viral product accumulation in the cell lysates or supernatants by 50% relative to no drug controls (EC50) are reported; EC50 ranges are as follows: A<1 μM; B 1-10 μM; C>10 μM.

Each structure is given as a SMILES string.

The EC50 is the concentration at which the effect is half-maximal. In the case of `O=S(=O)(c1cc(-c2ncc(-c3ccc(Br)c(F)c3)[nH]2)ccc1Cl)N1C2CC[C@@H]1C[C@H](O)C2` [Example 1], the EC50 was less than 1000 nM.

`O=S(=O)(c1cc(-c2ncc(-c3ccc(Br)c(F)c3)[nH]2)ccc1Cl)N1C2CC[C@@H]1C[C@@H](O)C2` [Example 2] gave an EC50 of less than 1000 nM.

Compound `C[C@H](NC(=O)OC(C)(C)C)C(=O)O[C@@H]1CC2CC[C@H](C1)N2S(=O)(=O)c1cc(-c2ncc(-c3ccc(Br)c(F)c3)[nH]2)ccc1Cl` [Example 3] registered an EC50 of less than 1000 nM.

For `C[C@H](N)C(=O)O[C@@H]1CC2CC[C@H](C1)N2S(=O)(=O)c1cc(-c2ncc(-c3ccc(Br)c(F)c3)[nH]2)ccc1Cl` [Example 4], the EC50 was less than 1000 nM.

Consider `O=S(=O)(c1cc(-c2ncc(-c3ccc(Br)c(F)c3)[nH]2)ccc1Cl)N1CCC(O)C2(CC2)C1` (stereo not drawn) [Example 5], for which the EC50 was less than 1000 nM.

As for `O=C(Nc1cc(F)c(F)c(F)c1)c1ccc(Cl)c(S(=O)(=O)N2C3CC[C@@H]2C[C@H](O)C3)c1` [Example 6], the EC50 was less than 1000 nM.

Take `O=C(Nc1cc(F)c(F)c(F)c1)c1ccc(Cl)c(S(=O)(=O)N2C3CC[C@@H]2C[C@@H](O)C3)c1` [Example 7]: the EC50 was less than 1000 nM.

`O=C(Nc1ccc(Br)c(F)c1)c1ccc(Cl)c(S(=O)(=O)N2C3CC[C@@H]2C[C@H](O)C3)c1` [Example 8] yielded an EC50 of 1000 to 10000 nM.

Compound `O=C(Nc1cc(F)c(F)c(F)c1)c1ccc(Cl)c(S(=O)(=O)N2CCC(O)C3(CC3)C2)c1` (stereo not drawn) [Example 9] came in with an EC50 of less than 1000 nM.

As to `O=S(=O)(c1cc(-c2ncc(-c3ccc(C4CC4)c(Cl)c3)[nH]2)ccc1Cl)N1C2CC[C@@H]1C[C@H](O)C2` [Example 10], the EC50 is less than 1000 nM.

The compound `O=S(=O)(c1cc(-c2ncc(-c3ccc(Cl)c(C4CC4)c3)[nH]2)ccc1Cl)N1C2CC[C@@H]1C[C@H](O)C2` [Example 11] displayed an EC50 of less than 1000 nM.

Regarding `O=S(=O)(c1cc(-c2ncc(-c3ccc(C(F)(F)F)c(C4CC4)c3)[nH]2)ccc1Cl)N1C2CC[C@@H]1C[C@H](O)C2` [Example 12], the EC50 was less than 1000 nM.

In turn, `O=S(=O)(c1cc(-c2ncc(-c3ccc(C(F)(F)F)c(Cl)c3)[nH]2)ccc1Cl)N1C2CC[C@@H]1C[C@H](O)C2` [Example 13] showed an EC50 of less than 1000 nM.

With `O=S(=O)(c1cc(-c2ncc(-c3ccc(Cl)c(C(F)(F)F)c3)[nH]2)ccc1Cl)N1C2CC[C@@H]1C[C@H](O)C2` [Example 14], the EC50 is less than 1000 nM.

`O=S(=O)(c1cc(-c2ncc(-c3ccc(C4CC4)c(C(F)(F)F)c3)[nH]2)ccc1Cl)N1C2CC[C@@H]1C[C@H](O)C2` [Example 15]: the EC50 was 1000 to 10000 nM.

In turn, `O=C1CC2CCC(C1)N2S(=O)(=O)c1cc(C(=O)Nc2cc(F)c(F)c(F)c2)ccc1Cl` [Example 16] displayed an EC50 of less than 1000 nM.

In turn, `C=C1CC2CCC(C1)N2S(=O)(=O)c1cc(C(=O)Nc2cc(F)c(F)c(F)c2)ccc1Cl` [Example 17] displayed an EC50 of less than 1000 nM.

With `O=C(Nc1cc(F)c(F)c(F)c1)c1ccc(Cl)c(S(=O)(=O)N2C3CCC2CC(O)(CO)C3)c1` (stereo not drawn) [Example 18], the EC50 was less than 1000 nM.

For `O=C(Nc1cc(F)c(F)c(F)c1)c1ccc(Cl)c(S(=O)(=O)N2C3CCC2CC(CO)C3)c1` (stereo not drawn) [Example 19], the EC50 is less than 1000 nM.

Take `O=C(Nc1cc(F)c(F)c(F)c1)c1ccc(Cl)c(S(=O)(=O)N2CCC3(CC2)COC3)c1` [Example 20]: the EC50 fell in the range of 1000 to 10000 nM.

As to `O=S(=O)(c1cc(-c2ncc(-c3ccc(Br)c(F)c3)[nH]2)ccc1Cl)N1CCC2(COC2)C1` [Example 21], the concentration giving a half-maximal response (EC50) was in the range of 1000 to 10000 nM.

As to `O=S(=O)(c1cc(-c2ncc(-c3ccc(Br)c(F)c3)[nH]2)ccc1Cl)N1CC2(COC2)C1` [Example 22], the EC50 was in the range of 1000 to 10000 nM.

Turning to `O=S(=O)(c1cc(C(Nc2cc(F)c(F)c(F)c2)C(F)(F)F)ccc1Cl)N1C2CC[C@@H]1CC(O)C2` (stereo partly drawn) [Example 23], the EC50 was more than 10000 nM.

In turn, `O=S(=O)(c1cc(C2(Nc3cc(F)c(F)c(F)c3)COC2)ccc1Cl)N1C2CC[C@@H]1CC(O)C2` (stereo partly drawn) [Example 24] gave a concentration for a half-maximal effect (EC50) of more than 10000 nM.
